Source: US11304974B2, “Nanosystems comprising silver and antibiotics and their use for the treatment of bacterial infections” (priority 2017, dated 2022)
Like-named read-outs stand apart in the source and are kept apart here.

How the values were obtained:
[1] = test system: S. aureus Sa-3 (strain 3); assay: Checkerboard synergy test collargol-vancomycin (Example 5); conditions: Staphylococcus aureus, read-out: MIC (product alone, Checkerboard test)
Protocol: (§3) To determine the existence of synergistic activity between collargol and vancomycin, a checkerboard test using plates having a “U”-shaped bottom (TPP) of 96 wells was used. Double subinhibitory serial dilutions of the two antimicrobials were prepared, so that the concentration of collargol decreased vertically (up-down) and the concentration of vancomycin decreased horizontally (left-right).
(§4) To quantify the synergistic activity of the two combined compounds, the Index fractional inhibitory concentration (IFIC) parameter was used. This index relates MIC of the antimicrobial 1 with the antimicrobial 2 alone and in combination, according to the following formula:
(§5) It is considered that there is synergistic effect if the IFIC value is <0.5.
(§6) The procedure was as follows: • Preparation of fresh cultures of each of the strains on blood agar (37° C., 24 h). […] The well wherein the minimum value of IFIC is obtained is chosen.

[2] = test system: S. aureus Sa-11 (strain 10); assay: as above; conditions: Staphylococcus aureus, read-out: MIC (product alone, Checkerboard test)
Protocol: as §3, §4, §5, §6

[3] = test system: S. epidermidis Se-1 (strain 14); assay: as above; conditions: Staphylococcus epidermidis, read-out: MIC (product alone, Checkerboard test)
Protocol: as §3, §4, §5, §6

[4] = test system: S. aureus Sa-10 (strain 9); assay: as above; conditions: Staphylococcus aureus, read-out: MIC (product alone, Checkerboard test)
Protocol: as §3, §4, §5, §6

[5] = test system: S. aureus Sa-12 (strain 11); assay: as above; conditions: Staphylococcus aureus, read-out: MIC (product alone, Checkerboard test)
Protocol: as §3, §4, §5, §6

[6] = test system: Gram Positive Bacteria; assay: Silver-antibiotics interaction study, MicroScan (Example 4); assay type: cell-based, S. aureus; conditions: subinhibitory colloidal silver (½ or 1/10 MIC)
Protocol: The effect of subinhibitory concentrations of colloidal silver (namely, ½ and 1/10 dilution of the MIC obtained in Example 3) in the presence of different types of antibiotics was tested.
For this, an automated equipment MicroScan AutoScan 4 (Siemens) was used, using Gram negative (Becman Coulter NM37) and Gram positive (Becman Coulter PM28) cards.
Each of these broths served as inoculum for the cards with antibiotics (for each strain, thus 3 cards were prepared). • Incubating the plates with antibiotics (in presence and absence of silver) at 37° C. for 24 h. • Reading the cards by use of LabPro software, and interpretation of the obtained values of MIC (determine if the silver reduces the initial MCI of each antibiotic).

[7] = test system: S. aureus Sa-11 (strain 10); assay: Epsilometry E-test, absence and presence of silver (Example 5); assay type: cell-based; conditions: Staphylococcus aureus
Protocol: (§1) In order to evaluate the synergy of collargol-antibiotics an epsilometry E-test was carried out. Said test is based on the agar diffusion method and relates to using a strip with a predefined steady gradient of 15 concentrations of the antibiotic being tested. After strain growth, an elliptical inhibition halo, being the MIC the antibiotic concentration corresponding to the cutting point.
(§2) It was performed for the antibiotics vancomycin, linezolid and tedizolid, in absence and presence of silver (½ and 1/10 MIC).

[8] = test system: S. aureus Sa-9 (strain 8); assay: as above; assay type: cell-based; conditions: Staphylococcus aureus
Protocol: as §1, §2

[9] = test system: S. aureus Sa-1 (strain 1); assay: as above; assay type: cell-based; conditions: Staphylococcus aureus
Protocol: as §1, §2

[10] = test system: S. aureus Sa-13 (strain 12); assay: as above; assay type: cell-based; conditions: Staphylococcus aureus
Protocol: as §1, §2

[11] = test system: S. aureus Sa-10 (strain 9); assay: as above; assay type: cell-based; conditions: Staphylococcus aureus
Protocol: as §1, §2

[12] = test system: S. epidermidis Se-1 (strain 14); assay: as above; assay type: cell-based; conditions: Staphylococcus epidermidis
Protocol: as §1, §2

[13] = test system: S. aureus Sa-3 (strain 3); assay: as above; assay type: cell-based; conditions: Staphylococcus aureus
Protocol: as §1, §2

[14] = test system: S. aureus Sa-12 (strain 11); assay: as above; assay type: cell-based; conditions: Staphylococcus aureus
Protocol: as §1, §2

[15] = test system: S.aureus ATCC 700698 Sa-SARM (strain 15); assay: as above; assay type: cell-based; conditions: Staphylococcus aureus
Protocol: as §1, §2

[16] = test system: S. aureus Sa-14 (strain 13); assay: as above; assay type: cell-based; conditions: Staphylococcus aureus, strain 13 (S. aureus Sa-14)
Protocol: as §1, §2

[17] = read-out: MIC (E-test) MH (without silver)
[18] = read-out: MIC (E-test) MH-1/10 MIC
[19] = read-out: MIC (E-test) MH-½ MIC

CN[C@H](CC(C)C)C(=O)N[C@H]1C(=O)N[C@@H](CC(N)=O)C(=O)N[C@H]2C(=O)N[C@H]3C(=O)N[C@H](C(=O)N[C@H](C(=O)O)c4cc(O)cc(O)c4-c4cc3ccc4O)[C@H](O)c3ccc(c(Cl)c3)Oc3cc2cc(c3O[C@@H]2O[C@H](CO)[C@@H](O)[C@H](O)[C@H]2O[C@H]2C[C@](C)(N)[C@H](O)[C@H](C)O2)Oc2ccc(cc2Cl)[C@H]1O [Vancomycin]
0.38 µg/mL: MIC [7, 18] | MIC [9, 19] | MIC [10, 19] | MIC [11, 19] | MIC [12, 19] | MIC [13, 19] | MIC ([16]; MH agar with 1/10 MIC of colargol, read-out: MIC (E-test) MH-1/10 MIC) | MIC ([16]; MH agar without silver, read-out: MIC (E-test) MH (without silver))
1 µg/mL: MIC [1] | MIC [2] | MIC [3] | MIC [4] | MIC [5] | MIC [8, 17] | MIC [8, 18] | MIC [11, 17] | MIC [11, 18] | MIC [14, 17] | MIC [14, 18] | MIC ([15]; ATCC700698, read-out: MIC (E-test) MH-1/10 MIC) | MIC ([15]; ATCC700698, read-out: MIC (E-test) MH-½ MIC)
1.5 µg/mL: MIC ([15]; ATCC700698, read-out: MIC (E-test) MH (without silver))
0.5 µg/mL: MIC [7, 17] | MIC [9, 17] | MIC [9, 18] | MIC [10, 17] | MIC [10, 18] | MIC [12, 18] | MIC [14, 19]
improved sensitivity: Effect of silver on the strain's sensitivity to the antibiotic [6]
0.25 µg/mL: MIC [7, 19] | MIC ([16]; MH agar with ½ MIC of colargol, read-out: MIC (E-test) MH-½ MIC)
0.75 µg/mL: MIC [8, 19] | MIC [12, 17] | MIC [13, 17] | MIC [13, 18]
